According to ChEMBL document CHEMBL5543072, “Discovery of a novel lead characterized by a stilbene-extended scaffold against sepsis as soluble epoxide hydrolase inhibitors” (Eur J Med Chem, 2024):
pIC50: −log10 of the molar value. Activity calls are given as the source filed them. No cut-off for these calls is given here.

Experiments:
[1] = biological target: T1, Bifunctional epoxide hydrolase 2 (Mus musculus, UniProt P34914)
T1 sequence (P34914 whole entry): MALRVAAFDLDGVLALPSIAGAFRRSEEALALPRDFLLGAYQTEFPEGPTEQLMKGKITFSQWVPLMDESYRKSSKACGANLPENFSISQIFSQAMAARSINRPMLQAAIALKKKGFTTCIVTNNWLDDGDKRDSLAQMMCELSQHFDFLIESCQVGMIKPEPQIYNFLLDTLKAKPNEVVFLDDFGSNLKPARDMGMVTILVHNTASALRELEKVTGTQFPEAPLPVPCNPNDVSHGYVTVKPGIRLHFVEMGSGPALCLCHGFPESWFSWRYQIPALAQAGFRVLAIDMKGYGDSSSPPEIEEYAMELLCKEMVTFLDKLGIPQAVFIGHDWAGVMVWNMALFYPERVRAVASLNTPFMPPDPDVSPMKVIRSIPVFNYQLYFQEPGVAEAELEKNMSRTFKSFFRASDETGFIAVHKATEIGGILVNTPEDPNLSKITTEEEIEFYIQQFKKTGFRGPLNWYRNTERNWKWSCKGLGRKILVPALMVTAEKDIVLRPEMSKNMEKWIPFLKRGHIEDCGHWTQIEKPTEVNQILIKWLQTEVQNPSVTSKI

Mus musculus [2] = experiment: Protection against LPS-induced sepsis in C57BL/6J mouse model assessed as survival rate at 5 mg/kg, iv measured after 24 hrs relative to control; assay type: functional
Mus musculus [3] = experiment: Protection against LPS-induced sepsis in C57BL/6J mouse model assessed as survival rate at 5 mg/kg, iv measured after 48 hrs relative to control; assay type: functional
Mus musculus [4] = experiment: Protection against LPS-induced sepsis in C57BL/6J mouse model assessed as survival rate at 5 mg/kg, iv measured after 72 hrs relative to control; assay type: functional
Mus musculus [5] = experiment: Protection against LPS-induced sepsis in C57BL/6J mouse model assessed as […] at 5 mg/kg, iv measured after 32 hrs relative to control; assay type: functional
[6] = Toxicity in LPS-induced sepsis C57BL/6J mouse model assessed as effect on survival rate at 0.5 to 5 mg/kg, ip measured upto 72 hrs; assay type: organism-based; conditions: in vivo, dose 0.5-5 mg/kg
[7] = Cytotoxicity in HEK293T cells assessed as cell viability at 50 uM incubated for 48 hrs by CCK8 assay relative to control; assay type: toxicity, cell-based, HEK-293T; conditions: human, read-out: Activity
[8] = Cytotoxicity in HEK293T cells assessed as cell viability at 5 uM incubated for 48 hrs by CCK8 assay relative to control; assay type: toxicity, cell-based, HEK-293T; conditions: human, read-out: Activity
[9] = Cytotoxicity against human HepG2 cells assessed as cell viability at 5 uM incubated for 48 hrs by CCK8 assay relative to control; assay type: toxicity, cell-based; conditions: read-out: Activity
Mus musculus [10] = experiment: Protection against LPS-induced sepsis in C57BL/6J mouse model assessed as delay in death time at 0.5 to 5 mg/kg, ip measured upto 72 hrs; assay type: functional, organism-based; conditions: dose 0.5-5 mg/kg
[11] = Cytotoxicity against human HepG2 cells assessed as cell viability at 50 uM incubated for 48 hrs by CCK8 assay relative to control; assay type: toxicity, cell-based; conditions: read-out: Activity
[12] = biological target: T2, Bifunctional epoxide hydrolase 2 (Homo sapiens, UniProt P34913)
T2 sequence (P34913 whole entry): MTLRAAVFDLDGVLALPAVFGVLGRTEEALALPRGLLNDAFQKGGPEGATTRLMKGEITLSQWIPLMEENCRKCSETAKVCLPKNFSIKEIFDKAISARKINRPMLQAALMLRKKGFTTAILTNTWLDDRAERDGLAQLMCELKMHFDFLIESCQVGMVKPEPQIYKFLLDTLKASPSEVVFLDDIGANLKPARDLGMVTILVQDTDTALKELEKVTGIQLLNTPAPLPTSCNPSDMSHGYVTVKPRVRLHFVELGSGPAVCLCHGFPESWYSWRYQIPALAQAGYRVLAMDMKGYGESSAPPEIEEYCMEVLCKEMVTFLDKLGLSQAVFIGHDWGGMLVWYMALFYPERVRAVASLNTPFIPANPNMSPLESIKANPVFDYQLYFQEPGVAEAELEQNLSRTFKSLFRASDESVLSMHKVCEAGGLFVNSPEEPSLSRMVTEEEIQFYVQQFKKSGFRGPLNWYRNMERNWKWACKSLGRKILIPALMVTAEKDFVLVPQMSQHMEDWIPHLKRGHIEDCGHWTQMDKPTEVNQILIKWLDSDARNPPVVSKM

| Structure (SMILES) | pIC50 [1] | further results |
| --- | --- | --- |
| COc1cc(/C=C/c2ccc(NC(=O)NCC3CCOCC3)cc2)cc(OC)c1 | 8.60 |  |
| COc1ccc(/C=C/c2ccc(NC(=O)NCC(C)C)cc2)cc1O | 8.32 |  |
| O=C(NCC1CCOCC1)Nc1ccc(/C=C/c2cccc(NC(=O)c3ccccn3)c2)cc1 | 8.07 |  |
| CN1CCN(C(=O)Nc2ccc(/C=C/c3ccc4c(c3)OCO4)cc2)CC1 | 5.56 |  |
| CC[C@H](C)C(=O)N1CCC(NC(=O)Nc2ccc(OC(F)(F)F)c(F)c2)CC1 |  | survival at 5 mg/kg (Mus musculus [2]): 30%; survival at 5 mg/kg (Mus musculus [3]): 0%; survival at 5 mg/kg (Mus musculus [4]): 0% |
| O=C(NCC1CCOCC1)Nc1ccc(/C=C/c2cccc(C(=O)NCc3ccccn3)c2)cc1 | 8.24 |  |
| COc1cc(/C=C/c2ccc(NC(=O)NCC(C)C)cc2)cc(OC)c1 | 8.72 |  |
| CC(C)CNC(=O)Nc1cccc(/C=C/c2ccc3c(c2)OCO3)c1 | 8.69 |  |
| O=C(Cc1ccccn1)Nc1cccc(NC(=O)c2ccc(NC(=O)NCC3CCOCC3)cc2)c1 | 7.17 |  |
| CN1CCC(NC(=O)Nc2ccc(/C=C/c3ccc4c(c3)OCO4)cc2)CC1 | 5.59 |  |
| COc1cc(/C=C/c2cccc(NC(=O)NCC3CCOCC3)c2)cc(OC)c1 | 7.04 |  |
| CCC(=O)N1CCC(NC(=O)Nc2ccc(/C=C/c3ccc4c(c3)OCO4)cc2)CC1 | 8.10 |  |
| CC(C)CNC(=O)Nc1ccc(/C=C/c2ccc3c(c2)OCO3)c(Cl)c1 | 8.34 |  |
| CC(C)CCNC(=O)Nc1cccc(/C=C/c2ccc3c(c2)OCO3)c1 | 7.63 |  |
| CC(C)CNC(=O)Nc1ccc(/C=C/c2ccc3c(c2)OCO3)cc1 | 8.57 |  |
| O=C(Cn1c2ccccc2c2ccccc21)Nc1cccc(/C=C/c2ccc(NC(=O)NCC3CCOCC3)cc2)c1 | 8.48 |  |
| O=C(Cc1ccccn1)Nc1ccc(/C=C/c2ccc(NC(=O)NCC3CCOCC3)cc2)cc1 | 8.46 |  |

| Structure (SMILES) | pIC50 [1] | further results |
| --- | --- | --- |
| Cc1cc(/C=C/c2ccc3c(c2)OCO3)ccc1NC(=O)NCC(C)C | 8.49 |  |
| COc1cc(/C=C/c2ccc(NC(=O)NCC3CCN(C)CC3)cc2)cc(OC)c1 | 6.04 |  |
| COc1cc(/C=C/c2ccc(CNC(=O)NCC(C)C)cc2)cc(OC)c1 | 7.85 |  |
| O=C(NCC1CCOCC1)Nc1cccc(/C=C/c2ccc3c(c2)OCO3)c1 | 8.56 |  |
| COc1cc(/C=C/c2cccc(NC(=O)NCC(C)C)c2)cc(OC)c1 | 7.35 |  |
| CC(C)CNC(=O)Nc1ccc(/C=C/c2ccc3c(c2)OCO3)c(F)c1 | 8.17 |  |
| CCC(=O)N1CCN(C(=O)Nc2ccc(/C=C/c3ccc4c(c3)OCO4)cc2)CC1 | 6.70 |  |
| C[C@@H]1C[C@H]2[C@@H]3CCC4=CC(=O)C=C[C@]4(C)[C@@]3(F)[C@@H](O)C[C@]2(C)[C@@]1(O)C(=O)CO [DEXAMETHASONE] |  | survival at 5 mg/kg (Mus musculus [2]): 100%; survival at 5 mg/kg (Mus musculus [3]): 100%; survival at 5 mg/kg (Mus musculus [4]): 100% |
| O=C(Cc1cccnc1)Nc1cccc(/C=C/c2ccc(NC(=O)NCC3CCOCC3)cc2)c1 | 8.69 | survival at 5 mg/kg (Mus musculus [2]): 70%; survival at 5 mg/kg (Mus musculus [3]): 20%; survival at 5 mg/kg (Mus musculus [4]): 0%; Activity (Mus musculus [5]): 0% |
| O=C(Cn1ccc2ccccc21)Nc1cccc(/C=C/c2ccc(NC(=O)NCC3CCOCC3)cc2)c1 | 8.90 |  |
| CC(C)CCNC(=O)Nc1ccc(/C=C/c2ccc3c(c2)OCO3)cc1 | 8.91 |  |
| COc1cc(/C=C/c2ccc(NC(=O)N(C)C)cc2)cc(OC)c1 | 5.28 |  |
| O=C(NCC1CCOCC1)Nc1ccc(/C=C/c2ccc3c(c2)OCO3)cc1 | 8.79 | Activity [6]: Non-Toxic; viability at 48 h, 50 µM [7]: 84.3%; viability at 48 h, 5 µM [8]: 98.2%; viability at 48 h, 5 µM [9]: 82.8%; Activity (Mus musculus [10]): Active; viability at 48 h, 50 µM [11]: 69%; pIC50 [12]: 8.32 |
| Cc1cc(NC(=O)NCC(C)C)ccc1/C=C/c1ccc2c(c1)OCO2 | 8.49 |  |
| O=C(Cc1ccncc1)Nc1cccc(/C=C/c2ccc(NC(=O)NCC3CCOCC3)cc2)c1 | 8.85 |  |
| CC(C)CNC(=O)Nc1ccc(/C=C/c2ccc3c(c2)OCO3)cc1F | 8.91 |  |
| O=C(Cc1ccc2ncccc2c1)Nc1cccc(/C=C/c2ccc(NC(=O)NCC3CCOCC3)cc2)c1 | 8.85 | survival at 5 mg/kg (Mus musculus [2]): 80%; survival at 5 mg/kg (Mus musculus [3]): 0%; survival at 5 mg/kg (Mus musculus [4]): 0%; Activity (Mus musculus [5]): 0% |
